Earlier results on one compound are cited in patent US20200147064A1, “Reduction of Pro-Inflammatory HDL Using a Leukotriene Inhibitor” (Autoimmune Pharma LLC, priority 2017, published 2020).

Structures are written as SMILES.

This data set deals with leukotriene production. The conditions noted are these: statement in words, cited from Stock, N S et al., J Med Chem. 2011.

As to `CCOc1ccc(-c2ccc(Cn3c(CC(C)(C)C(=O)O)c(SC(C)(C)C)c4cc(OCc5ccc(C)cn5)ccc43)cc2)cn1` [Compound 2-107, 3-[3-tert-butylsulfanyl-1-[4-(6-ethoxy-pyridin-3-yl)-benzyl]-5-(5-methyl-pyridin-2-ylmethoxy)-1H-indol-2-yl]-2,2-dimethyl-propionic acid], the “inhibitor of leukotriene production in vivo” value was “potent inhibitor of leukotriene production in vivo”.
